“And” between values parts separate entries of the source, which are not always exact repeats. Identical values can stand only once. Toxic doses and inconclusive results are not listed. No stated cut-off is given here; in the data, active means T/C of 150% or more; inactive means T/C below 125%.
System: L1210 leukemia ip in BDF1 mice, survival T/C
Assay: NCI In Vivo Anticancer Drug Screen. Data for tumor model L1210 Leukemia (intraperitoneal) in B6D2F1 (BDF1) mice
Settings: endpoint: mean survival time, higher = longer survival
Outline: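 Mice bearing the transplanted tumor received compound or vehicle. Survival of the treated group was divided by that of the vehicle-treated control group to give the ratio.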

[1] = dose: 100.0 mg/kg/injection, schedule: Q04DX003 (ip), vehicle: saline with Tween-80
[2] = dose: 200.0 mg/kg/injection, schedule: Q04DX003 (ip), vehicle: saline with Tween-80
[3] = dose: 400.0 mg/kg/injection, schedule: Q04DX003 (ip), vehicle: saline with Tween-80
[4] = dose: 75.0 mg/kg/injection, schedule: Q01DX001 (ip), vehicle: other
[5] = dose: 200.0 mg/kg/injection, schedule: Q01DX009 (ip), vehicle: saline with Tween-80
[6] = dose: 400.0 mg/kg/injection, schedule: Q01DX009 (ip), vehicle: saline with Tween-80
[7] = dose: 100.0 mg/kg/injection, schedule: Q01DX001 (ip), vehicle: carboxymethylcellulose (CMC)
[8] = dose: 200.0 mg/kg/injection, schedule: Q01DX001 (ip), vehicle: carboxymethylcellulose (CMC)
[9] = dose: 400.0 mg/kg/injection, schedule: Q01DX001 (ip), vehicle: carboxymethylcellulose (CMC)

Measured: T/C

CC(=O)O[C@H]1[C@H]2O[C@]23[C@@H]2CC[C@]4(O)C[C@@H](O)CC[C@]4(C)[C@H]2CC[C@]3(C)[C@H]1c1ccc(=O)oc1
inactive: dose: 10.0 mg/kg/injection, schedule: Q01DX001 (ip), vehicle: other 90 % of control | dose: 20.0 mg/kg/injection, schedule: Q01DX001 (ip), vehicle: other 100 % of control | dose: 40.0 mg/kg/injection, schedule: Q01DX001 (ip), vehicle: other 107 % of control | dose: 100.0 mg/kg/injection, schedule: Q01DX001 (ip), vehicle: other 94 % of control | dose: 200.0 mg/kg/injection, schedule: Q01DX001 (ip), vehicle: other 92 % of control

BrC12CC3CC(CC(C3)C1)C2
inactive: [1] 98 % of control | [2] 102 % of control | [3] 98 % of control

CC(C)CCC(C)(C)C1=CC(=O)C=CC1=O
inactive: dose: 100.0 mg/kg/injection, schedule: Q04DX002 (ip), vehicle: saline with Tween-80 93 % of control | dose: 200.0 mg/kg/injection, schedule: Q04DX002 (ip), vehicle: saline with Tween-80 90 % of control | dose: 400.0 mg/kg/injection, schedule: Q04DX002 (ip), vehicle: saline with Tween-80 93 % of control

CNNC(=O)c1ccccc1
inactive: dose: 6.25 mg/kg/injection, schedule: Q04DX002 (ip), vehicle: saline 119 % of control | dose: 12.5 mg/kg/injection, schedule: Q04DX002 (ip), vehicle: saline 97 % of control | dose: 25.0 mg/kg/injection, schedule: Q04DX002 (ip), vehicle: saline 97 % of control | dose: 50.0 mg/kg/injection, schedule: Q04DX002 (ip), vehicle: saline 94 % of control and 97 % of control | dose: 100.0 mg/kg/injection, schedule: Q04DX002 (ip), vehicle: saline 98 % of control

CC(C)(C)C1CCC([N+](=O)[O-])CC1 (stereo unspecified)
inactive: dose: 19.0 mg/kg/injection, schedule: Q01DX001 (ip), vehicle: other 103 % of control | dose: 19.0 mg/kg/injection, schedule: Q01DX009 (ip), vehicle: other 102 % of control | dose: 38.0 mg/kg/injection, schedule: Q01DX001 (ip), vehicle: other 97 % of control | dose: 38.0 mg/kg/injection, schedule: Q01DX009 (ip), vehicle: other 98 % of control | [4] 95 % of control and 97 % of control

C=CCn1c(=S)[nH]c2ccccc2c1=O
inactive: [1] 93 % of control | [5] 91 % of control | [2] 94 % of control | [6] 89 % of control | [3] 96 % of control

CC1(C)C2CCC13CC(=O)OC3C2 (stereo unspecified)
inactive: dose: 0.78 mg/kg/injection, schedule: Q01DX009 (ip), vehicle: saline 105 % of control | dose: 0.78 mg/kg/injection, schedule: Q04DX003 (ip), vehicle: acetone 101 % of control | dose: 1.56 mg/kg/injection, schedule: Q01DX009 (ip), vehicle: saline 100 % of control | dose: 1.56 mg/kg/injection, schedule: Q04DX003 (ip), vehicle: acetone 92 % of control | dose: 3.12 mg/kg/injection, schedule: Q01DX009 (ip), vehicle: saline 102 % of control | dose: 3.12 mg/kg/injection, schedule: Q04DX003 (ip), vehicle: acetone 98 % of control | dose: 4.6 mg/kg/injection, schedule: Q01DX009 (ip), vehicle: saline 89 % of control | dose: 7.0 mg/kg/injection, schedule: Q01DX009 (ip), vehicle: saline 91 % of control | dose: 10.5 mg/kg/injection, schedule: Q01DX009 (ip), vehicle: saline 104 % of control | dose: 15.0 mg/kg/injection, schedule: Q01DX009 (ip), vehicle: acetone 92 % of control

OCC(c1ccccc1)C(O)Cc1ccccc1 (stereo unspecified)
inactive: [7] 97 % of control | [8] 95 % of control | [9] 101 % of control

COC(=O)C1OC(n2cnc3c(N)ncnc32)C2OC(C)(C)OC12 (stereo unspecified)
inactive: dose: 100.0 mg/kg/injection, schedule: Q01DX005 (ip), vehicle: saline 102 % of control | dose: 200.0 mg/kg/injection, schedule: Q01DX005 (ip), vehicle: saline 104 % of control

O=[N+]([O-])c1cc(Cl)cc2c1-c1c(Cl)cc(Cl)cc1C2Br (stereo unspecified)
inactive: dose: 100.0 mg/kg/injection, schedule: Q01DX009 (ip), vehicle: Klucel (hydroxypropylcellulose) (HPC) 101 % of control | dose: 100.0 mg/kg/injection, schedule: Q04DX003 (ip), vehicle: Klucel (hydroxypropylcellulose) (HPC) 98 % of control | dose: 200.0 mg/kg/injection, schedule: Q01DX009 (ip), vehicle: Klucel (hydroxypropylcellulose) (HPC) 104 % of control | dose: 200.0 mg/kg/injection, schedule: Q04DX003 (ip), vehicle: Klucel (hydroxypropylcellulose) (HPC) 96 % of control | dose: 400.0 mg/kg/injection, schedule: Q01DX009 (ip), vehicle: Klucel (hydroxypropylcellulose) (HPC) 103 % of control | dose: 400.0 mg/kg/injection, schedule: Q04DX003 (ip), vehicle: Klucel (hydroxypropylcellulose) (HPC) 93 % of control

CC(C)N(C(=O)COc1ccc(Cl)cc1Cl)c1ccccc1
inactive: dose: 100.0 mg/kg/injection, schedule: Q01DX009 (ip), vehicle: saline with Tween-80 102 % of control | [1] 96 % of control | [5] 106 % of control | [2] 96 % of control | [6] 124 % of control | [3] 91 % of control

CCCCCCC(C)N(C)CCOC(=O)c1ccc([N+](=O)[O-])cc1 (stereo unspecified)
inactive: [4] 101 % of control | dose: 150.0 mg/kg/injection, schedule: Q01DX001 (ip), vehicle: other 106 % of control

O=C(O)C1CC(c2ccccc2)OC1=O (stereo unspecified)
inactive: dose: 100.0 mg/kg/injection, schedule: Q01DX009 (ip), vehicle: gum acacia 101 % of control | dose: 100.0 mg/kg/injection, schedule: Q04DX003 (ip), vehicle: gum acacia 98 % of control | dose: 200.0 mg/kg/injection, schedule: Q01DX009 (ip), vehicle: gum acacia 89 % of control | dose: 200.0 mg/kg/injection, schedule: Q04DX003 (ip), vehicle: gum acacia 93 % of control | dose: 400.0 mg/kg/injection, schedule: Q01DX009 (ip), vehicle: gum acacia 106 % of control | dose: 400.0 mg/kg/injection, schedule: Q04DX003 (ip), vehicle: gum acacia 91 % of control

C=CCc1ccccc1C
inactive: dose: 100.0 mg/kg/injection, schedule: Q01DX001 (ip), vehicle: saline 106 % of control | dose: 200.0 mg/kg/injection, schedule: Q01DX001 (ip), vehicle: saline 102 % of control | dose: 400.0 mg/kg/injection, schedule: Q01DX001 (ip), vehicle: saline 101 % of control

Cc1ncc(CCO)c2c1OC(C)(C)OC2
inactive: [7] 98 % of control | [8] 110 % of control | [9] 101 % of control

CCN(CC)CCCOC(=O)/C=C/c1c(C)[nH]c(=O)[nH]c1=O
inactive: dose: 6.25 mg/kg/injection, schedule: Q01DX009 (ip), vehicle: saline 106 % of control | dose: 12.5 mg/kg/injection, schedule: Q01DX009 (ip), vehicle: saline 97 % of control | dose: 12.5 mg/kg/injection, schedule: Q04DX003 (ip), vehicle: saline 102 % of control | dose: 25.0 mg/kg/injection, schedule: Q01DX009 (ip), vehicle: saline 96 % of control | dose: 25.0 mg/kg/injection, schedule: Q04DX003 (ip), vehicle: saline 103 % of control | dose: 50.0 mg/kg/injection, schedule: Q01DX009 (ip), vehicle: saline 103 % of control | dose: 50.0 mg/kg/injection, schedule: Q04DX003 (ip), vehicle: saline 116 % of control

COC1CC(OC(=O)c2ccc([N+](=O)[O-])cc2)C(OC(=O)c2ccc([N+](=O)[O-])cc2)C(C)O1 (stereo unspecified)
inactive: [7] 93 % of control | [8] 102 % of control | [9] 88 % of control

O=S(=O)(OCCOS(=O)(=O)c1ccccc1)c1ccccc1
inactive: dose: 100.0 mg/kg/injection, schedule: Q04DX002 (ip), vehicle: Klucel (hydroxypropylcellulose) (HPC) 115 % of control | dose: 200.0 mg/kg/injection, schedule: Q04DX002 (ip), vehicle: Klucel (hydroxypropylcellulose) (HPC) 107 % of control | dose: 400.0 mg/kg/injection, schedule: Q04DX002 (ip), vehicle: Klucel (hydroxypropylcellulose) (HPC) 100 % of control

N#C[S-].N#C[S-].N#C[S-].N#C[S-].[Co]
inactive: dose: 5.0 mg/kg/injection, schedule: Q01DX001 (ip), vehicle: saline 96 % of control | dose: 10.0 mg/kg/injection, schedule: Q01DX001 (ip), vehicle: saline 104 % of control | dose: 20.0 mg/kg/injection, schedule: Q01DX001 (ip), vehicle: saline 106 % of control

COc1ccc(OC)c2c(C(C)=O)c[nH]c12
inactive: dose: 12.5 mg/kg/injection, schedule: Q04DX002 (ip), vehicle: Klucel (hydroxypropylcellulose) (HPC) 118 % of control | dose: 25.0 mg/kg/injection, schedule: Q04DX002 (ip), vehicle: Klucel (hydroxypropylcellulose) (HPC) 112 % of control | dose: 50.0 mg/kg/injection, schedule: Q04DX002 (ip), vehicle: Klucel (hydroxypropylcellulose) (HPC) 93 % of control
